Results as given in PubChem BioAssay (NCI).
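GI50: concentration for 50% inhibition of growth. TGI denotes the concentration required for complete inhibition of growth.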

Columns and labels:
Assay in all cases: DTP human tumour cell line panel, 384-well format
[1] = system: NCI-H226 lung
[2] = system: NCI-H23 lung
[3] = system: NCI-H322M lung
[4] = system: NCI-H460 NSCLC
[5] = system: NCI-H522 lung
[6] = system: NCI/ADR-RES ovarian
[7] = system: OVCAR-3 ovarian
[8] = system: OVCAR-4 ovarian
[9] = system: OVCAR-5 ovarian
[10] = system: OVCAR-8 ovarian
[11] = system: PC-3 prostate
[12] = system: RPMI-8226 leukemia
[13] = system: RXF 393 renal
[14] = system: SF-268 CNS
[15] = system: SF-295 CNS
[16] = system: SF-539 CNS
[17] = system: SK-MEL-28 melanoma
[18] = system: SK-MEL-5 melanoma
[19] = system: SK-OV-3 ovarian
[20] = system: SN12C renal
[21] = system: SNB-19 CNS
[22] = system: SNB-75 CNS
[23] = system: SW-620 colon
[24] = system: T-47D breast
[25] = system: TK-10 renal
[26] = system: U251 glioblastoma
[27] = system: UACC-257 melanoma
[28] = system: UACC-62 melanoma
[29] = system: UO-31 renal

C1=C/COCc2cc(ccc2OCCN2CCCC2)Nc2nccc(n2)-c2ccc(o2)COC/1
GI50 [1]: 1210 nM
TGI [1]: 4180 nM
GI50 [2]: 879 nM
TGI [2]: 2190 nM
GI50 [3]: 1320 nM
TGI [3]: 3510 nM
GI50 [4]: 792 nM
TGI [4]: 2270 nM
GI50 [5]: 1090 nM
TGI [5]: 2400 nM
GI50 [6]: 1970 nM
TGI [6]: 4000 nM
GI50 [7]: 1330 nM
TGI [7]: 3230 nM
GI50 [8]: 2000 nM
TGI [8]: 5100 nM
GI50 [9]: 590 nM
TGI [9]: 4100 nM
GI50 [10]: 1680 nM
TGI [10]: 4270 nM
GI50 [11]: 1490 nM
TGI [11]: 4880 nM
GI50 [12]: 1790 nM
TGI [12]: 3220 nM
GI50 [13]: 1250 nM
TGI [13]: 2570 nM
GI50 [14]: 256 nM
TGI [14]: 964 nM
GI50 [15]: 2050 nM
TGI [15]: 4490 nM
GI50 [16]: 1610 nM
TGI [16]: 3000 nM
GI50 [17]: 1430 nM
TGI [17]: 3000 nM
GI50 [18]: 1030 nM
TGI [18]: 2260 nM
GI50 [19]: 758 nM
TGI [19]: 2880 nM
GI50 [20]: 587 nM
TGI [20]: 1890 nM
GI50 [21]: 2580 nM
TGI [21]: 10600 nM
GI50 [22]: 1060 nM
TGI [22]: 2270 nM
GI50 [23]: 2440 nM
TGI [23]: 8150 nM
GI50 [24]: 613 nM
TGI [24]: 2430 nM
GI50 [25]: 2390 nM
TGI [25]: 9400 nM
GI50 [26]: 1920 nM
TGI [26]: 4790 nM
GI50 [27]: 1460 nM
TGI [27]: 2800 nM
GI50 [28]: 798 nM
TGI [28]: 2060 nM
GI50 [29]: 1640 nM
TGI [29]: 3850 nM
